Results reported in PubChem BioAssay (NCI).
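Five compound concentrations were applied to cells in 96-well plates for 48 hours; endpoints were derived by simple linear interpolation of the resulting dose-response curve. TGI marks complete inhibition of growth.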

Legend:
Assay in all cases: NCI tumour cell line growth inhibition, 48 h
DLD-1 colon = system: DLD-1 colon
LOX IMVI melanoma = system: LOX IMVI melanoma
SF-295 CNS = system: SF-295 CNS
CAKI-1 renal = system: CAKI-1 renal
SN12C renal = system: SN12C renal
HL-60(TB) leukemia = system: HL-60(TB) leukemia
DMS 114 small cell lung = system: DMS 114 small cell lung
SNB-19 CNS = system: SNB-19 CNS
MALME-3M melanoma = system: MALME-3M melanoma
MOLT-4 leukemia = system: MOLT-4 leukemia
RPMI-8226 leukemia = system: RPMI-8226 leukemia
HCT-15 colon = system: HCT-15 colon
NCI-H23 lung = system: NCI-H23 lung
HCC-2998 colon = system: HCC-2998 colon
SF-539 CNS = system: SF-539 CNS
U251 CNS = system: U251 CNS
IGROV1 ovarian = system: IGROV1 ovarian
NCI-H460 lung = system: NCI-H460 lung
DMS 273 small cell lung = system: DMS 273 small cell lung
UO-31 renal = system: UO-31 renal
NCI-H522 lung = system: NCI-H522 lung
SF-268 CNS = system: SF-268 CNS
OVCAR-4 ovarian = system: OVCAR-4 ovarian
HCT-116 colon = system: HCT-116 colon
NCI/ADR-RES ovarian = system: NCI/ADR-RES ovarian
SW-620 colon = system: SW-620 colon
HOP-18 NSCLC = system: HOP-18 NSCLC
P388 leukemia = system: P388 leukemia
HT29 colon = system: HT29 colon
NCI-H226 lung = system: NCI-H226 lung
RXF 393 renal = system: RXF 393 renal
KM20L2 colon = system: KM20L2 colon
MCF7 breast = system: MCF7 breast
UACC-62 melanoma = system: UACC-62 melanoma
SNB-78 CNS = system: SNB-78 CNS
KM12 colon = system: KM12 colon
A549 NSCLC = system: A549 NSCLC
EKVX NSCLC = system: EKVX NSCLC
SK-MEL-5 melanoma = system: SK-MEL-5 melanoma
P388/ADR leukemia = system: P388/ADR leukemia
SK-MEL-28 melanoma = system: SK-MEL-28 melanoma
K-562 leukemia = system: K-562 leukemia
SN12K1 renal = system: SN12K1 renal
COLO 205 colon = system: COLO 205 colon
M19-MEL melanoma = system: M19-MEL melanoma
XF 498 CNS = system: XF 498 CNS
SK-MEL-2 melanoma = system: SK-MEL-2 melanoma
CCRF-CEM leukemia = system: CCRF-CEM leukemia
OVCAR-3 ovarian = system: OVCAR-3 ovarian
A498 renal = system: A498 renal
SK-OV-3 ovarian = system: SK-OV-3 ovarian
HOP-92 NSCLC = system: HOP-92 NSCLC
OVCAR-5 ovarian = system: OVCAR-5 ovarian
HOP-62 NSCLC = system: HOP-62 NSCLC
OVCAR-8 ovarian = system: OVCAR-8 ovarian
SNB-75 CNS = system: SNB-75 CNS
UACC-257 melanoma = system: UACC-257 melanoma
ACHN renal = system: ACHN renal
786-0 renal = system: 786-0 renal
SR leukemia = system: SR leukemia
M14 melanoma = system: M14 melanoma
RXF-631 renal = system: RXF-631 renal
TK-10 renal = system: TK-10 renal
LXFL 529 NSCLC = system: LXFL 529 NSCLC

CCCNC1=C(C)C(=O)C2=C(C1=O)[C@H](COC(N)=O)[C@]1(OC)[C@@H]3N[C@@H]3CN21 was tested, and the TGI (DLD-1 colon) was 79.9 µM, the TGI (LOX IMVI melanoma) was 19.1 µM and the TGI (SF-295 CNS) was 39.7 µM. The TGI (CAKI-1 renal) was 84.5 µM, the TGI (SN12C renal) was 69.2 µM and the TGI (HL-60(TB) leukemia) was 19.4 µM. The TGI (DMS 114 small cell lung) was 59 µM, the TGI (SNB-19 CNS) was 45.4 µM and the TGI (MALME-3M melanoma) was 26.5 µM. It also gave a TGI (MOLT-4 leukemia) of 31.3 µM, a TGI (RPMI-8226 leukemia) of 73.9 µM and a TGI (HCT-15 colon) of 72 µM. It also gave a TGI (NCI-H23 lung) of 12.5 µM, a TGI (HCC-2998 colon) of 20.6 µM and a TGI (SF-539 CNS) of 45.3 µM. For the same molecule, the TGI (U251 CNS) was 40.6 µM, the TGI (IGROV1 ovarian) was 33.3 µM and the TGI (NCI-H460 lung) was 4.17 µM. For the same molecule, the TGI (DMS 273 small cell lung) was 15.8 µM, the TGI (UO-31 renal) was 67.3 µM and the TGI (NCI-H522 lung) was 12.5 µM. For the same molecule, the TGI (SF-268 CNS) was 77.9 µM, the TGI (OVCAR-4 ovarian) was 19.3 µM and the TGI (HCT-116 colon) was 32.2 µM. The TGI (NCI/ADR-RES ovarian) was 300 µM, the TGI (SW-620 colon) was 113 µM and the TGI (HOP-18 NSCLC) was 53.4 µM. It also gave a TGI (P388 leukemia) of 39.2 µM, a TGI (HT29 colon) of 94.3 µM and a TGI (NCI-H226 lung) of 34 µM. It also gave a TGI (RXF 393 renal) of 46.4 µM, a TGI (KM20L2 colon) of 121 µM and a TGI (MCF7 breast) of 4.15 µM. It also gave a TGI (UACC-62 melanoma) of 5.74 µM, a TGI (SNB-78 CNS) of 158 µM and a TGI (KM12 colon) of 56.1 µM. For the same molecule, the TGI (A549 NSCLC) was 8.69 µM, the TGI (EKVX NSCLC) was 27.4 µM and the TGI (SK-MEL-5 melanoma) was 2.65 µM. For the same molecule, the TGI (P388/ADR leukemia) was 54.7 µM, the TGI (SK-MEL-28 melanoma) was 87.8 µM and the TGI (K-562 leukemia) was 174 µM. The TGI (SN12K1 renal) was 44.1 µM, the TGI (COLO 205 colon) was 45 µM and the TGI (M19-MEL melanoma) was 27.3 µM. It also gave a TGI (XF 498 CNS) of 15.3 µM, a TGI (SK-MEL-2 melanoma) of 34.3 µM and a TGI (CCRF-CEM leukemia) of 185 µM. For the same molecule, the TGI (OVCAR-3 ovarian) was 55.3 µM, the TGI (A498 renal) was 13.6 µM and the TGI (SK-OV-3 ovarian) was 170 µM. The TGI (HOP-92 NSCLC) was 43.9 µM, the TGI (OVCAR-5 ovarian) was 92.4 µM and the TGI (HOP-62 NSCLC) was 4.42 µM. For the same molecule, the TGI (OVCAR-8 ovarian) was 53 µM, the TGI (SNB-75 CNS) was 24.6 µM and the TGI (UACC-257 melanoma) was 38.9 µM.
For O=C(O)/C=C\C(=O)c1ccc(Cl)cc1, the TGI (DLD-1 colon) was > 100 µM, the TGI (LOX IMVI melanoma) was > 61.7 µM and the TGI (SF-295 CNS) was > 100 µM. The TGI (CAKI-1 renal) was 47.2 µM, the TGI (SN12C renal) was > 100 µM and the TGI (HL-60(TB) leukemia) was 58.5 µM. For the same molecule, the TGI (DMS 114 small cell lung) was 55.4 µM, the TGI (SNB-19 CNS) was > 100 µM and the TGI (MALME-3M melanoma) was 34.5 µM. The TGI (MOLT-4 leukemia) was 49 µM, the TGI (RPMI-8226 leukemia) was 66.7 µM and the TGI (HCT-15 colon) was 50.2 µM. The TGI (NCI-H23 lung) was > 86.7 µM, the TGI (HCC-2998 colon) was > 100 µM and the TGI (SF-539 CNS) was 54.2 µM. For the same molecule, the TGI (U251 CNS) was > 100 µM, the TGI (IGROV1 ovarian) was > 100 µM and the TGI (NCI-H460 lung) was > 100 µM. For the same molecule, the TGI (DMS 273 small cell lung) was > 31.6 µM, the TGI (UO-31 renal) was 99.8 µM and the TGI (NCI-H522 lung) was > 100 µM. For the same molecule, the TGI (SF-268 CNS) was > 71.1 µM, the TGI (ACHN renal) was 73.3 µM and the TGI (786-0 renal) was > 78.7 µM. For the same molecule, the TGI (OVCAR-4 ovarian) was > 100 µM, the TGI (HCT-116 colon) was > 58.8 µM and the TGI (SW-620 colon) was 50.1 µM. The TGI (HOP-18 NSCLC) was > 100 µM, the TGI (SR leukemia) was 52.2 µM and the TGI (HT29 colon) was > 64.9 µM. The TGI (NCI-H226 lung) was > 87.6 µM, the TGI (RXF 393 renal) was 40.5 µM and the TGI (M14 melanoma) was 33.2 µM. For the same molecule, the TGI (KM20L2 colon) was > 74.7 µM, the TGI (RXF-631 renal) was > 100 µM and the TGI (UACC-62 melanoma) was > 75.4 µM. The TGI (TK-10 renal) was > 100 µM, the TGI (SNB-78 CNS) was > 100 µM and the TGI (KM12 colon) was 98.9 µM. For the same molecule, the TGI (A549 NSCLC) was > 100 µM, the TGI (EKVX NSCLC) was > 94 µM and the TGI (SK-MEL-5 melanoma) was > 100 µM. The TGI (SK-MEL-28 melanoma) was 34.7 µM, the TGI (LXFL 529 NSCLC) was 48.4 µM and the TGI (K-562 leukemia) was 82.8 µM. The TGI (COLO 205 colon) was 34.9 µM, the TGI (M19-MEL melanoma) was 55.8 µM and the TGI (XF 498 CNS) was > 76.6 µM. The TGI (SK-MEL-2 melanoma) was > 76.8 µM, the TGI (CCRF-CEM leukemia) was 48.7 µM and the TGI (OVCAR-3 ovarian) was > 73.3 µM. The TGI (A498 renal) was > 100 µM, the TGI (SK-OV-3 ovarian) was > 100 µM and the TGI (HOP-92 NSCLC) was 47.8 µM. The TGI (OVCAR-5 ovarian) was > 100 µM, the TGI (HOP-62 NSCLC) was > 100 µM and the TGI (OVCAR-8 ovarian) was > 100 µM. For the same molecule, the TGI (SNB-75 CNS) was > 79 µM and the TGI (UACC-257 melanoma) was 38 µM.
With COc1cc([C@@H]2c3cc4c(c(O[C@@H]5O[C@H]6CO[C@@H](C)O[C@H]6[C@H](O)[C@@H]5O)c3C[C@H]3COC(=O)[C@@H]32)OCO4)cc(OC)c1O the TGI (DLD-1 colon) was > 100 µM, the TGI (LOX IMVI melanoma) was > 100 µM and the TGI (SF-295 CNS) was 22.5 µM. For the same molecule, the TGI (SN12C renal) was > 100 µM, the TGI (HL-60(TB) leukemia) was > 38.9 µM and the TGI (DMS 114 small cell lung) was > 31.1 µM. For the same molecule, the TGI (SNB-19 CNS) was > 100 µM, the TGI (MALME-3M melanoma) was > 100 µM and the TGI (MOLT-4 leukemia) was > 100 µM. The TGI (RPMI-8226 leukemia) was > 100 µM, the TGI (HCT-15 colon) was > 100 µM and the TGI (NCI-H23 lung) was > 100 µM. The TGI (HCC-2998 colon) was > 81.1 µM, the TGI (SF-539 CNS) was 7.79 µM and the TGI (U251 CNS) was > 46.8 µM. For the same molecule, the TGI (IGROV1 ovarian) was > 100 µM, the TGI (NCI-H460 lung) was > 100 µM and the TGI (DMS 273 small cell lung) was > 100 µM. The TGI (UO-31 renal) was > 100 µM, the TGI (NCI-H522 lung) was 6.42 µM and the TGI (SF-268 CNS) was > 79.5 µM. For the same molecule, the TGI (OVCAR-4 ovarian) was > 53.3 µM, the TGI (HCT-116 colon) was > 44.6 µM and the TGI (NCI/ADR-RES ovarian) was 37.1 µM. The TGI (SW-620 colon) was > 100 µM, the TGI (HOP-18 NSCLC) was > 100 µM and the TGI (P388 leukemia) was 4.82 µM. For the same molecule, the TGI (HT29 colon) was > 100 µM, the TGI (NCI-H226 lung) was 20.8 µM and the TGI (RXF 393 renal) was > 100 µM. The TGI (KM20L2 colon) was > 100 µM, the TGI (MCF7 breast) was > 100 µM and the TGI (UACC-62 melanoma) was > 100 µM. For the same molecule, the TGI (SNB-78 CNS) was > 100 µM, the TGI (KM12 colon) was > 79.6 µM and the TGI (A549 NSCLC) was > 100 µM. The TGI (EKVX NSCLC) was > 100 µM, the TGI (SK-MEL-5 melanoma) was > 100 µM and the TGI (SK-MEL-28 melanoma) was > 100 µM. The TGI (K-562 leukemia) was > 100 µM, the TGI (SN12K1 renal) was > 45.1 µM and the TGI (COLO 205 colon) was > 100 µM. The TGI (M19-MEL melanoma) was > 100 µM, the TGI (XF 498 CNS) was > 100 µM and the TGI (SK-MEL-2 melanoma) was > 100 µM. For the same molecule, the TGI (CCRF-CEM leukemia) was > 100 µM, the TGI (OVCAR-3 ovarian) was 20.6 µM and the TGI (A498 renal) was > 100 µM. For the same molecule, the TGI (SK-OV-3 ovarian) was > 92.9 µM, the TGI (HOP-92 NSCLC) was > 100 µM and the TGI (OVCAR-5 ovarian) was > 100 µM. The TGI (HOP-62 NSCLC) was > 100 µM, the TGI (OVCAR-8 ovarian) was > 100 µM and the TGI (SNB-75 CNS) was > 100 µM. For the same molecule, the TGI (UACC-257 melanoma) was > 100 µM.
